Reference: publication PMC12543159, “Characterization and ligand binding properties of a fatty acid- and retinol- binding protein (Hp-FAR-2) from Heligmosomoides polygyrus” (PLOS Neglected Tropical Diseases, 2025)

How the values were obtained:
Format in all cases: binding
Hp-FAR-2 [1] = biological target: T1, Hp-FAR-2 (Heligmosomoides polygyrus, UniProt A0A183GLK6); assay: DAUDA displacement fluorescence competition ([…] and […])
T1 construct: mature Hp-FAR-2, amino acids 18–180, N-terminal 6-His-tag
T1 sequence (A0A183GLK6 entry or part of it): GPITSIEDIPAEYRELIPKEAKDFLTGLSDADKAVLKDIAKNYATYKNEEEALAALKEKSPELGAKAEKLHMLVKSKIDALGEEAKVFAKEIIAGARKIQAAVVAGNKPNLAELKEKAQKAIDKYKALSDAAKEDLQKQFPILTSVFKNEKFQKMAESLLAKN

Hp-FAR-2 [2] = biological target: T1, Hp-FAR-2; assay: retinol fluorescence titration with purified Hp-FAR-2
Hp-FAR-2 [3] = biological target: T1, Hp-FAR-2; assay: DAUDA displacement fluorescence competition ([…] excess, […])
Hp-FAR-2 [4] = biological target: T1, Hp-FAR-2; assay: fluorescence titration of DAUDA with purified Hp-FAR-2 (blue shift)

Structure (SMILES)	DAUDA displacement fluorescence competition (1:1 and 1:10) (Hp-FAR-2 [1])	DAUDA displacement fluorescence competition (10-fold excess, 10 μM) (Hp-FAR-2 [3])	other results
CC/C=C\C/C=C\C/C=C\C/C=C\C/C=C\C/C=C\CCC(=O)O [DHA, docosahexaenoic acid]	Oleic acid, linoleic acid, and docosahexaenoic acid all significantly displaced DAUDA	–	–
CC1=C(/C=C/C(C)=C/C=C/C(C)=C/CO)C(C)(C)CCC1 [retinol]	–	–	Kd (Hp-FAR-2 [2]): 3.24 µM
CCCCCCCC/C=C\CCCCCCCC(=O)O [OA, oleic acid]	Oleic acid, linoleic acid, and docosahexaenoic acid all significantly displaced DAUDA	–	–
CCCCC/C=C\C/C=C\CCCCCCCC(=O)O [LA, linoleic acid]	Oleic acid, linoleic acid, and docosahexaenoic acid all significantly displaced DAUDA	–	–
CCCCC/C=C\C/C=C\C/C=C\C/C=C\CCCC(=O)O [AA, arachidonic acid]	–	All fatty acids except α-linolenic acid significantly displaced DAUDA compared to DAUDA alone	–
CC/C=C\C/C=C\C/C=C\C/C=C\C/C=C\CCCC(=O)O [EPA, eicosapentaenoic acid]	–	All fatty acids except α-linolenic acid significantly displaced DAUDA compared to DAUDA alone	–
CCCCCCCCCCCCCCCC(=O)O [PA, palmitic acid]	–	All fatty acids except α-linolenic acid significantly displaced DAUDA compared to DAUDA alone	–
CN(C)c1cccc2c(S(=O)(=O)NCCCCCCCCCCC(=O)O)cccc12 [DAUDA]	–	–	Kd (Hp-FAR-2 [4]): 3.16 µM
